Reference: ChEMBL document CHEMBL1136189, “Thiourea inhibitors of herpes viruses. Part 1: bis-(aryl)thiourea inhibitors of CMV” (Bioorg Med Chem Lett, 2003)
≈ marks a conversion by molar mass, not a printed value.

What was measured:
Human alphaherpesvirus 2 = assay: Inhibitory concentration against Herpes simplex virus (HSV); assay type: functional, organism-based
Human alphaherpesvirus 3 = assay: Inhibitory concentration against Varicella zoster virus (VZV); assay type: functional, organism-based
Human betaherpesvirus 5 = assay: Inhibitory concentration against human cytomegalovirus (CMV) in cultured human foreskin fibroblast (HFF) cells; assay type: functional, organism-based; conditions: Human betaherpesvirus 5, HFF
[1] = MTS cellular toxicity was determined; assay type: functional

| SMILES | IC50 (Human alphaherpesvirus 2) [µg/mL] | IC50 (Human alphaherpesvirus 3) [µg/mL] | IC50 (Human betaherpesvirus 5) [µg/mL] | Activity [1] [µg/mL] |
| --- | --- | --- | --- | --- |
| O=C(Nc1ccc(/N=C(\S)Nc2cc(C(F)(F)F)cc(C(F)(F)F)c2)cc1)c1ccco1 | > 10 | 7 (≈ 14.8 µM) | 0.04 (≈ 0.0845 µM) |  |
| O=C(Nc1ccc(/N=C(\S)Nc2ccc(C(F)(F)F)c(Cl)c2)cc1)c1cocn1 | > 10 | > 10 | 0.02 (≈ 0.0454 µM) |  |
| O=C(Nc1ccc(/N=C(\S)Nc2cc(C(F)(F)F)cc(C(F)(F)F)c2)cc1)c1csnn1 | > 10 | > 10 | 0.02 (≈ 0.0407 µM) |  |
| O=C(Nc1ccc(/N=C(\S)Nc2ccc(Cl)c(C(F)(F)F)c2)cc1)c1ccco1 | > 10 | > 10 | 0.03 (≈ 0.0682 µM) |  |
| O=C(Nc1ccc(/N=C(\S)Nc2cccc(C(F)(F)F)c2)cc1)c1ccco1 | > 10 | > 10 | 0.06 (≈ 0.148 µM) |  |
| O=C(Nc1ccc(/N=C(\S)Nc2cc(C(F)(F)F)cc(C(F)(F)F)c2)cc1)c1cocn1 | > 10 | > 10 | 0.03 (≈ 0.0632 µM) |  |
| O=C(Nc1ccc(/N=C(\S)Nc2ccc(C(F)(F)F)c(Cl)c2)cc1)c1ccccn1 | > 10 | > 10 | > 10 |  |
| O=C(Nc1ccc(NC(=S)Nc2ccccc2)cc1)c1ccco1 | > 10 | > 10 | 0.3 (≈ 0.889 µM) |  |
| Cc1cccc(N/C(S)=N/c2ccc(NC(=O)c3ccco3)cc2)c1 | > 10 | > 10 | 0.06 (≈ 0.171 µM) |  |
| O=C(Nc1ccc(/N=C(\S)Nc2cc(C(F)(F)F)cc(C(F)(F)F)c2)cc1)c1cscn1 | > 10 | > 10 | 0.008 (≈ 0.0163 µM) |  |
| O=C(Nc1ccc(/N=C(\S)Nc2ccc(C(F)(F)F)c(Cl)c2)cc1)c1cscn1 | > 10 | > 10 | 0.006 (≈ 0.0131 µM) |  |

Continued, in another order:

| IC50 (Human alphaherpesvirus 2) [µg/mL] | IC50 (Human alphaherpesvirus 3) [µg/mL] | SMILES | IC50 (Human betaherpesvirus 5) [µg/mL] | Activity [1] [µg/mL] |
| --- | --- | --- | --- | --- |
| > 10 | > 10 | Cc1ccc(N/C(S)=N/c2ccc(NC(=O)c3ccco3)cc2)cc1Cl | 0.09 (≈ 0.233 µM) |  |
| > 10 | > 10 | COc1cc(OC)c(N/C(S)=N/c2ccc(NC(=O)c3ccco3)cc2C)cc1Cl | 0.6 (≈ 1.35 µM) |  |
| > 10 | > 10 | O=C(Nc1ccc(/N=C(\S)Nc2ccc(F)c(Cl)c2)cc1)c1ccco1 | 0.06 (≈ 0.154 µM) |  |
| > 10 | 4 (≈ 8.13 µM) | COc1cc(OC)c(N/C(S)=N/c2cc(OC)c(NC(=O)c3ccco3)cc2OC)cc1Cl | > 10 |  |
| 3 (≈ 7.9 µM) | > 10 | COc1cc(OC)c(N/C(S)=N/c2ccc(NC(C)=O)cc2)cc1Cl | 45 (≈ 118 µM) | >10 |
| 0.3 (≈ 0.679 µM) | > 10 | COc1cc(OC)c(N/C(S)=N/c2ccc(NC(=O)c3ccccc3)cc2)cc1Cl | 4 (≈ 9.05 µM) | >10 |
| > 10 | > 10 | COc1cc(OC)c(N/C(S)=N/c2ccc(NC(=O)c3ccco3)c(C)c2)cc1Cl | > 10 | >10 |
| 2.5 (≈ 5 µM) | > 10 | COc1cc(OC)c(N/C(S)=N/c2ccc(NC(=O)c3ccco3)cc2C(F)(F)F)cc1Cl | 2 (≈ 4 µM) | >10 |
| > 10 | > 10 | COc1cc(OC)c(N/C(S)=N/c2ccc(NC(=O)c3ccco3)cc2C#N)cc1Cl | > 10 | >10 |
| > 10 | > 10 | COc1cc(OC)c(N/C(S)=N/c2ccc(NC(=O)c3ccco3)cc2)cc1Cl | 0.2 (≈ 0.463 µM) | >10 |
| 3 (≈ 7.62 µM) | > 10 | CCC(=O)Nc1ccc(N/C(S)=N/c2cc(Cl)c(OC)cc2OC)cc1 |  | >10 |
| 8 (≈ 17.3 µM) | > 10 | COc1cc(OC)c(N/C(S)=N/c2ccc(NC(=O)c3ccco3)c(OC)c2)cc1Cl | > 10 |  |
